Laboratory results published in patent US20090233913A1, “OPTICAL ISOMERS OF DIHYDRO-2,3-BENZODIAZEPINES AND THEIR STEREOSELECTIVE SYNTHESIS” (priority 2005, published 2009).

What was measured:
AMPA receptor = assay: Spreading depression (SD) test in the chicken retina, in vitro; type: cell-based; conditions: antagonism of SD latency generated by 5 μM S-AMPA, isolated chicken retina, 30-minute incubation, room temperature; average ± deviation of the average
Experimental: The test was carried out according to method of Sheardown (1993).
Isolated eye-cups of 5-7 days old chickens (Shaver red-brow) were used. The sexes of the chickens were unidentified. Eyes of the animals were enucleated in narcosis caused by etherization, then the back sides of the eyes were cut and put in nutrient solution.
The composition of the medium is 100 mM NaCl, 3 mM KCl, 1 mM MgSO4, 1 mM CaCl2, 30 mM NaHCO3, 1 mM NaH2PO4 10 mM D-glukose, pH=7.3.
The spreading depression (SD) latency generated by 5 μM S-AMPA is determined at room temperature followed by a 90-minute stabilisation period. This value was considered as control value. Then the latency caused by AMPA was measured following a 30-minute incubation period in the presence of the test compound, then followed by further 60 minutes washing the recursion of the latency time to the control value was checked.
The elongation of the control latency with 30 sec corresponds to 100% antagonism. • Literature: Sheardown, M. J.: The triggering of spreading depression in the chicken retina: a pharmacological study. Brain Research 1993, 607: 189-194.

female Wistar rats = assay: Toxicity test in rats: histological atrophy of thymus and bone-marrow after seven-day p.o. treatment; type: in vivo, rat; conditions: for thymus cortex atrophy (scores): female Wistar rats, 30 mg/kg p.o. once daily for seven days, score 0 (no change) to 4 (severe), average ± deviation of the average; for bone-marrow atrophy (scores): female, Wistar, po, 30 mg/kg, 7 days; for bone-marrow atrophy (scores) / effect on the hystological pictures of the thymus and bone-marrow (in words): rat, in vivo
Experimental: The examination was carried out using female Wistar rats. One day before the treatment the animals were assigned to randomised groups based on their weight (10 animals/group). Each active ingredient was suspended in a solution of 0.4% hydroxypropylmethylcellulose (Methocell F4 M, Dow Chemical Company, USA) and administered once daily for seven days by gastric-canule. The daily doses were 30 mg/kg, the animals of the control group were treated with the solvent. At the end of the experiments the animals were sacrificed by incising of the arteries of thigh in narcosis caused by ether.
After the thymus-ectomy thymi were fixed in a solution of formaline buffered with phosphate, then embedded in paraffin, pigmented with hemalaun-eosin.
Bone-marrow film preparations were made from the femur of the animals and pigmented according to Grimsa method (Sheenan D. C.-Hrapchak B. B.: Theory and practice of histotechnology (2nd ed.) Mosby Company, St. Louis, USA 1980).
The histological athrophy was scored as follows: 0—there is no change, 1—change appears, 2—slight change, 3—middle severe change, marked change, 4—severe, obvious, wide change. The rating was accomplished blind without any information about the treatment.
Groups were compared by KRUSKAL WALLIS ANOVA test (Ranks and Median). In case of significant deviation (p<0.05) WALD-WOLFOWITZ test was used for comparison.

male Wistar rats = assay: Measurement of plasma corticosterone concentration in the rat (radio-immunoassay); type: in vivo; conditions: treatment per os, 15 mg/kg
Experimental: Examinations were carried out by using male wistar rats weighing 250-300 g. The animals were kept in an air-conditioned room, 12 hours artificial daylight was followed by 12 hours darkness. For four days prior to the experiments the animals got 0.5 ml water daily by a gastric-canule. The weight of the animals was measured at the evening before the experiments, then the animals were placed in separate cages.
Experiments were accomplished in the morning between 9 and 12 hours.
Before the treatment the animals were randomized to groups (7 animals/group)
The tested compounds were administered in a 15 mg/body weight kg dose, in 5 ml/kg solvent volume, using gastric-canule. The control animals were treated with solvent. The solvent composition contained 0.2 ml of 2.5 M HCl and 19.8 ml of distilled water.
After one hour of the treatment the animals were decapitated and about 2 ml of blood were collected in an ice-cold test tube containing 100 μl of 2% (WN) K-EDTA.
For the determination of corticosterone concentration, a corticosterone-3-CMO-BSA anti-body prepared in rabbit was used in a dilution of 1:40000. The antibody cross-reaction with desoxycorticosteron was 1.5%; with progesterone it was 2.3%. […]
The corticosterone concentration was measured from 10 μl plasma without extraction. […] The radioactivity was measured with LKB Clinigamma apparatus. […]

| Structure (SMILES) | EC50 (AMPA receptor) | thymus cortex atrophy (scores) (female Wistar rats) | bone-marrow atrophy (scores) (female Wistar rats) | effect on the hystological pictures of the thymus and bone-marrow (in words) (female Wistar rats) | effect on the plasma corticosterone concentration (in words) (male Wistar rats) |
| --- | --- | --- | --- | --- | --- |
| CC(=O)N1N=C(c2ccc(N)c(C)c2)c2cc3c(cc2C[C@H]1C)OCO3 [Example 4, (R)-(−)-7-acetyl-5-(4-amino-3-methylphenyl)-8-methyl-8,9-dihydro-7H-1,3-dioxolo[4,5-h][2,3] benzodiazepine] | 1.8 ± 0.1 µM | 0.30 ± 0.21 scores | 0.40 ± 0.27 scores | only in a minimal degree |  |
| CC(=O)N1N=C(c2ccc(N)c(C)c2)c2cc3c(cc2C[C@@H]1C)OCO3 [Example 6, (S)-(+)-7-Acetyl-5-(4-amino-3-methylphenyl)-8-methyl-8,9-dihydro-7H-1,3-dioxolo[4,5-h][2,3] benzodiazepine] |  | 2.9 ± 0.43 scores | 2.1 ± 0.31 scores | caused significant hystological atrophy in the thymus and the bone-marrow |  |
| CC(=O)N1N=C(c2ccc(N)c(C)c2)c2cc(Cl)ccc2C[C@H]1C [Example 15, (R)-(−)-3-acetyl-1-(4-amino-3-methylphenyl)-8-chloro-4-methyl-4,5-dihydro-3H-2,3-benzodiazepine] | 3.9 ± 0.2 µM |  |  |  | did not affect the plasma corticosterone concentration |
| CC(=O)N1N=C(c2ccc(N)c(C)c2)c2cc(Cl)ccc2C[C@@H]1C [Example 16, (S)-(+)-3-acetyl-1-(4-amino-3-methylphenyl)-8-chloro-4-methyl-4,5-dihydro-3H-2,3-benzodiazepine] |  |  |  |  | elevated the plasma corticosterone concentration |
